Where a name gives a salt, the structure may show the parent alone. Each block holds one compound with its values, some of them ahead of it.
Experiments:
[1] = target: T1, human CK1δ transcription variant 1 (Homo sapiens, UniProt P48730); experiment: in-vitro kinase assay CK1δ; type: biochemical; conditions: 10 µM ATP, mean ± SD, n = 3; for remaining activity at 10 µM: read-out: CK1δ Residual Activity [%] at 10 µM ± SD
T1 construct: made in house; own knowledge
Text: Human CK1δ transcription variant 1 (CK1δ TV1_NM_001893.4) has been amplified from the cDNA obtained from HT1080 cell line, using CK1δ_forward-primer: 5′-GGATCCATGGAGCTGAGAGTCGGGAACAG-3′ and CK1δ_reverse primer: 5′-GGATCCTCATCGGTGCACGACAGACTGA-3′. The CK1δ DNA construct was cloned into pSC-A cloning vector (Agilent technologies, Munich, Germany) with BamHI enzyme, to generate plasmids pGEX6-P3-GST-CK1δ TV1 (FP1417). Overexpression and purification of GST-CK1δ TV1 protein has been performed as described before.
(§1) In vitro kinase assays have been performed to both screen, as well as to calculate IC50 values of the compounds for CK1δ and ε. Each reaction was carried out using 2 μCi ^32P-γ-ATP in kinase buffer containing 25 mM Tris-HCl (pH = 7.5), 10 mM MgCl2, 100 µM EDTA, and 10 µM ATP. […] Recombinant human CK1δ transcription variant 1 (expressed and purified as GST fusion protein as described earlier) and human GST-CK1ε (PV3500; Invitrogen) were used as sources of enzyme, while α-casein (C6780; Sigma-Aldrich) was used as substrate. Kinase reactions were incubated for 30 min at 30 °C and then stopped with loading dye (50 mM Tris-HCl (pH = 6.8), 5% (v/v) β-mercaptoethanol (MSH), 10% (v/v) glycerol, 2% (w/v) sodium dodecyl sulfate (SDS), 0.1% (w/v) bromphenol blue). Subsequently, reactions were separated by sodium dodecyl sulfate polyacrylamide gel electrophoresis (SDS-PAGE) and phosphorylated protein bands were visualized on dried gels by autoradiography. The phosphorylated substrate protein bands were excised, and phosphorylation was quantified by Cherenkov counting. Dose-response analyses and calculation of IC50 values were carried out using GraphPad Prism 6 statistical software (San Diego, CA, USA).

human GST-CK1ε = target: T2, human GST-CK1ε (Homo sapiens, UniProt P49674); experiment: in-vitro kinase assay CK1ε; type: biochemical; conditions: 10 µM ATP, mean ± SD, n = 3; for remaining activity at 10 µM: read-out: CK1ε Residual Activity [%] at 10 µM ± SD
T2 construct: purchased Invitrogen PV3500
T2 sequence (P49674 whole entry): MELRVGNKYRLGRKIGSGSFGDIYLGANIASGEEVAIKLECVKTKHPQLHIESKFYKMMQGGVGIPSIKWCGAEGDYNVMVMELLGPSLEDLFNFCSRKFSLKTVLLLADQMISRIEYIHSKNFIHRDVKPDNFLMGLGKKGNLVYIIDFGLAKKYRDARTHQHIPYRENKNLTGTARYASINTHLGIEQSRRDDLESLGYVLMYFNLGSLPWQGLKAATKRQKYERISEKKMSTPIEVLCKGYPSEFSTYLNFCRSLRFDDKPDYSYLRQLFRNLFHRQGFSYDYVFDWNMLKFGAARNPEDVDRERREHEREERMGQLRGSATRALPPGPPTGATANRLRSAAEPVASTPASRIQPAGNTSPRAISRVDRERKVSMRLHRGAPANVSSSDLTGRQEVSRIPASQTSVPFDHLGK
Description: as §1

[2] = MTT cell viability assay MCF-7; type: cell-based, human; conditions: human, MCF-7 cells, mean ± SD
Description: (§2) The human colon adenocarcinoma cell line HT-29 was grown in McCoy’s 5A medium, whereas MCF7 cells were grown in DMEM medium. All media were supplemented with 10% fetal calf serum (FCS), 100 units/mL penicillin, 100 µg/mL streptomycin and 2 mM glutamine. All cells were grown at 37 °C in a humidified 5% carbon dioxide atmosphere.
(§3) In order to analyze the effects of selected inhibitors on the cell viability of HT-29 and MCF7 cells, MTT assays were performed. 1 × 10^4 cells/well were seeded in 96-well cell culture plates. After 24 h cells were treated with increasing concentrations of the indicated inhibitor compounds, with untreated and DMSO-treated cells as control. After an incubation period of 48 h, 10 µL of MTT solution (5 mg/mL in PBS) were added and cells were incubated for 4 h. MTT-containing medium was carefully removed and 100 µL acidic isopropanol (0.04 N HCl in isopropanol) per well were added. To dissolve formazan crystals, plates were shaken for 30 min on an orbital shaker in the dark. Finally, dissolved crystals were measured spectrophotometrically at 570 nm. All experiments were performed in triplicate with four technical replicates per assay. Results were normalized considering the mean optical density value of control wells as 100%. GraphPad Prism 6 software (San Diego, CA, USA) was used to calculate EC50 values.

[3] = MTT cell viability assay HT-29; type: cell-based, human; conditions: human, HT-29 cells, mean ± SD
Description: as §2, §3

p38α = tested on: p38α; design: method as in PMID 18763757; conditions: cited from earlier work
MCF-7 cells = experiment: MTT cell viability assay MCF-7; type: cell-based, human; conditions: mean ± SD
Description: as §2, §3

HT-29 cells = experiment: MTT cell viability assay HT-29; type: cell-based, human; conditions: mean ± SD
Description: as §2, §3

[4] = LC-MS of aqueous solutions with and without PEG; type: physicochemical; conditions: LC-MS over 7 days, not in solutions without PEG
Text: Since all analytical data for the originally employed inhibitors was consistent with the given structures, we postulate that the incorporation of an additional methylene group occurred via spontaneous Pictet-Spengler cyclization during crystallization. In line with this notion, PEG, which has been used in our soaking solutions, is known to generate formaldehyde traces that have been shown in the past to affect the derivatization of both, proteins and ligands. To further corroborate this hypothesis, we examined whether simple exposure of 29d/e to formaldehyde would give rise to the same Pictet-Spengler products 31a/b (Scheme 5). Indeed, when compounds 29d/e were treated with formaldehyde at room temperature 31a/b were formed readily and the obtained spectroscopic data was consistent with the predicted Pictet-Spengler products. In addition, aqueous solutions of 29d and 29e with and without PEG were analyzed by liquid chromatography-mass spectrometry (LC-MS) over a period of 7 days.
LC-MS was performed with a Bruker Esquire ~LC ion trap mass spectrometer (Bremen, Germany) in the positive ion mode (dry gas 9 L/min, nebulizer 35 psi, drying temperature 350 °C) after chromatographic separation using an Agilent 1100 HPLC system (Waldbronn, Germany) with a RP-8 column (Agilent Eclipse XDB-C8, 150 × 4.6 mm, 5 μm) and a 0.1% acetic acid/acetonitrile gradient.

IRAK4 = conditions: cited from earlier work
Trk = tested on: Trk; design: method as in PMID 20336234; conditions: cited from earlier work
CK1δ = tested on: CK1δ; design: method as in PMID 19591487; conditions: cited from earlier work

Compound: COc1ccc(-c2cc(C(=O)Nc3cc(-c4c(-c5ccc(F)cc5)noc4C(C)C)ccn3)n(CC3NCC(O)C3O)c2)cc1 (centres unmarked) (as salt: trifluoroacetate) [29e]
melting point: 188 to 191 °C

remaining activity at 10 µM ([1]; 10 µM compound): 48 ± 4%
remaining activity at 10 µM (human GST-CK1ε; 10 µM compound): 47 ± 11%
Compound: COc1ccc(-c2cc(C(=O)Nc3cc(-c4c(-c5ccc(F)cc5)noc4C(C)C)ccn3)n(C)c2)c(OC)c1 [28b, 4-(2,4-Dimethoxyphenyl)-N-{4-[3-(4-fluorophenyl)-5-isopropylisoxazol-4-yl]pyridin-2-yl}-1-methyl-1H-pyrrole-2-carboxamide]
viability at 48 h, 5 µM [2]: 89 ± 13%
viability at 48 h, 10 µM [2]: 84 ± 11%
viability at 48 h, 20 µM [2]: 79 ± 12%
viability at 48 h, 5 µM [3]: 94 ± 23%
viability at 48 h, 10 µM [3]: 59 ± 14%
viability at 48 h, 20 µM [3]: 52 ± 10%

Compound: CC(C)C(C)Nc1cc(-c2[nH]c(SC[C@@H](O)CO)nc2-c2ccc(F)cc2)ccn1 (some centres unmarked) [compound 5]
IC50 (p38α): 15 nM

IC50 [1]: 0.45 ± 0.07 µM
remaining activity at 10 µM ([1]; 10 µM compound): 7.7 ± 0.2%
IC50 (human GST-CK1ε): 1.5 ± 0.3 µM
remaining activity at 10 µM (human GST-CK1ε; 10 µM compound): 18 ± 1%
EC50 (MCF-7 cells; Homo sapiens, MCF7, 48 h): 39000 ± 12000 nM
EC50 (HT-29 cells; Homo sapiens, HT-29, 48 h): 24000 ± 6000 nM
Compound: CC(C)c1onc(-c2ccc(F)cc2)c1-c1ccnc(NC(=O)c2cccn2C[C@H]2NC[C@H](O)[C@@H]2O)c1 [29c, (2R,3R,4S)-2-{[2-({4-[3-(4-Fluorophenyl)-5-isopropylisoxazol-4-yl]pyridin-2-yl}carbamoyl)-1H-pyrrol-1-yl]methyl}-3,4-dihydroxypyrrolidin-1-ium trifluoroacetate]
viability at 48 h, 5 µM [2]: 90 ± 10%
viability at 48 h, 10 µM [2]: 81 ± 5%
viability at 48 h, 5 µM [3]: 80 ± 16%
viability at 48 h, 10 µM [3]: 78 ± 11%

Compound: COc1ccc(-c2cc(C(=O)Nc3cc(-c4c(-c5ccc(F)cc5)noc4C(C)C)ccn3)n(CC3NCC(O)C3O)c2)cc1 (centres unmarked) [29e]
IC50 [1]: 0.047 ± 0.004 µM
CK1δ Residual Activity [%] at 10 µM ± SD ([1]; 10 µM compound): 3.4 ± 0.7%
IC50 (human GST-CK1ε): 0.063 ± 0.009 µM
CK1ε Residual Activity [%] at 10 µM ± SD (human GST-CK1ε; 10 µM compound): 14 ± 3%
MCF-7 Cell Viability [%] 5 µM (MCF-7 cells; 5 µM, 48 h): 90 ± 27%
MCF-7 Cell Viability [%] 10 µM (MCF-7 cells; 10 µM, 48 h): 58 ± 18%
MCF-7 Cell Viability [%] 20 µM (MCF-7 cells; 20 µM, 48 h): 8.0 ± 3.4%
EC50 (MCF-7 cells; 48 h): 10000 ± 2000 nM
HT-29 Cell Viability [%] 5 µM (HT-29 cells; 5 µM, 48 h): 75 ± 13%
HT-29 Cell Viability [%] 10 µM (HT-29 cells; 10 µM, 48 h): 42 ± 10%
HT-29 Cell Viability [%] 20 µM (HT-29 cells; 20 µM, 48 h): 11 ± 3%
EC50 (HT-29 cells; 48 h): 8800 ± 800 nM
formation of Pictet-Spengler products in aqueous solution with PEG [4]: significant product formation

IC50 [1]: 0.011 ± 0.001 µM
IC50 (human GST-CK1ε): 0.056 ± 0.005 µM
EC50 (MCF-7 cells; 48 h): 1300 ± 200 nM
EC50 (MCF-7 cells; Homo sapiens, MCF7, 48 h): < 2000 nM
EC50 (HT-29 cells; 48 h): 1100 ± 100 nM
EC50 (HT-29 cells; Homo sapiens, HT-29, 48 h): < 2000 nM
Compound: COc1ccc(-c2cc(C(=O)Nc3cc(-c4c(-c5ccc(F)cc5)noc4C(C)C)ccn3)n3c2CN2C[C@H](O)[C@H](O)[C@H]2C3)cc1 [31a, (1R,2S,10aR)-N-{4-[3-(4-Fluorophenyl)-5-isopropylisoxazol-4-yl]pyridin-2-yl}-1,2-dihydroxy-6-(4-methoxyphenyl)-2,3,10,10a-tetrahydro-1H,5H-dipyrrolo[1,2-a:1’,2’-d]pyrazine-8-carboxamide]

Compound: Cc1cc(Nc2ncc(-c3nc4ccncc4s3)c(N[C@@H]3C[C@H](CO)[C@@H](O)[C@H]3O)n2)cc(C)n1 [compound 4]
IC50 (IRAK4): 0.3 nM

Compound: C[C@]12O[C@H](C[C@]1(O)CO)n1c3ccccc3c3c4c(c5c6ccccc6n2c5c31)CNC4=O [compound 7]
IC50 (Trk): 25 nM

remaining activity at 10 µM ([1]; 10 µM compound): 48 ± 7%
remaining activity at 10 µM (human GST-CK1ε; 10 µM compound): 70 ± 21%
melting point: 157 to 158 °C
Compound: COc1ccc(-c2cc(C(=O)Nc3cc(-c4c(-c5ccc(F)cc5)noc4C(C)C)ccn3)n(C)c2)cc1 [28a, N-{4-[3-(4-Fluorophenyl)-5-isopropylisoxazol-4-yl]pyridin-2-yl}-4-(4-methoxyphenyl)-1-methyl-1H-pyrrole-2-carboxamide]
viability at 48 h, 5 µM [2]: 103 ± 16%
viability at 48 h, 10 µM [2]: 88 ± 9%
viability at 48 h, 20 µM [2]: 54 ± 5%
viability at 48 h, 5 µM [3]: 111 ± 19%
viability at 48 h, 10 µM [3]: 98 ± 22%
viability at 48 h, 20 µM [3]: 78 ± 10%

Compound: COc1ccc(/C=C/C(=O)Nc2cc(-c3c(-c4ccc(F)cc4)noc3C(C)C)ccn2)c(OC)c1 [compound 8]
IC50 (CK1δ): 33 nM

IC50 [1]: 0.037 ± 0.004 µM
remaining activity at 10 µM ([1]; 10 µM compound): 2.8 ± 0.5%
IC50 (human GST-CK1ε): 0.1 ± 0.014 µM
remaining activity at 10 µM (human GST-CK1ε; 10 µM compound): 9.7 ± 1.6%
EC50 (MCF-7 cells; Homo sapiens, MCF7, 48 h): 9600 ± 800 nM
EC50 (HT-29 cells; Homo sapiens, HT-29, 48 h): 5400 ± 400 nM
Compound: COc1ccc(-c2cc(C(=O)Nc3cc(-c4c(-c5ccc(F)cc5)noc4C(C)C)ccn3)n(C[C@H]3NC[C@H](O)[C@@H]3O)c2)c(OC)c1 [29f]
viability at 5 µM (MCF-7 cells; Homo sapiens, MCF7, 48 h, 5 µM): 87 ± 5%
viability at 10 µM (MCF-7 cells; Homo sapiens, MCF7, 48 h, 10 µM): 33 ± 7%
viability at 20 µM (MCF-7 cells; Homo sapiens, MCF7, 48 h, 20 µM): 3.9 ± 0.2%
viability at 5 µM (HT-29 cells; Homo sapiens, HT-29, 48 h, 5 µM): 50 ± 10%
viability at 10 µM (HT-29 cells; Homo sapiens, HT-29, 48 h, 10 µM): 25 ± 5%
viability at 20 µM (HT-29 cells; Homo sapiens, HT-29, 48 h, 20 µM): 9.4 ± 3%

Compound: COc1ccc(-c2cc(C(=O)Nc3cc(-c4c(-c5ccc(F)cc5)noc4C(C)C)ccn3)n(CC3NCC(O)C3O)c2)cc1 (centres unmarked) (as salt: trifluoroacetate) [29d]
melting point: 191 to 193 °C

IC50 [1]: 0.024 ± 0.004 µM
IC50 (human GST-CK1ε): 0.196 ± 0.026 µM
EC50 (MCF-7 cells; 48 h): 1900 ± 300 nM
EC50 (MCF-7 cells; Homo sapiens, MCF7, 48 h): < 2000 nM
EC50 (HT-29 cells; 48 h): 1400 ± 200 nM
EC50 (HT-29 cells; Homo sapiens, HT-29, 48 h): < 2000 nM
Compound: COc1ccc(-c2cc(C(=O)Nc3cc(-c4c(-c5ccc(F)cc5)noc4C(C)C)ccn3)n3c2CN2C[C@@H](O)[C@@H](O)[C@@H]2C3)cc1 [31b, (1S,2R,10aS)-N-{4-[3-(4-Fluorophenyl)-5-isopropylisoxazol-4-yl]pyridin-2-yl}-1,2-dihydroxy-6-(4-methoxyphenyl)-2,3,10,10a-tetrahydro-1H,5H-dipyrrolo[1,2-a:1’,2’-d]pyrazine-8-carboxamide]

Source: publication PMC6429214, “Design, Synthesis and Biological Evaluation of Isoxazole-Based CK1 Inhibitors Modified with Chiral Pyrrolidine Scaffolds” (Molecules, 2019)
